Measured values taken from US20110015080A1, “Solution-based methods for RNA expression profiling” (MASSACHUSETTS INSTITUTE OF TECHNOLOGY, priority 2005, published 2011).
Several values for one entry are separate records, joined by “and”; a condition that tells them apart may be missing. Identical values can stand only once.

System: HL60 (human promyelocytic leukemia) cells
Experiment: LMA-FlexMAP bead-based gene expression signature analysis of total RNA from HL60 cells treated with tretinoin or DMSO (ninety transcripts); for FlexMap NM 003332 LUA#43: test concentration or dose not given here
Details: replicate columns
[1] = Experiment 2, HL60 cells, Tretinoin-treated

For `CC1=C(/C=C/C(C)=C/C=C/C(C)=C/C(=O)O)C(C)(C)CCC1` [tretinoin, all-trans-retinoic acid], the “FlexMap NM_003132 LUA#68” value (Experiment 2, Tretinoin) was 635 and 618 and 721 and 690.5 and 680 and 633 and 648 and 716, the “FlexMap NM_003172 LUA#19” value (Experiment 2, Tretinoin) was 333 (2×) and 312.5 and 370 and 365 and 330 and 352 and 380 and the “FlexMap NM_003332 LUA#43” value (Experiment 2, Tretinoin) was 2733 and 2691.5 and 2589.5 and 2832 and 2821 and 2704 and 2692 and 2772. For the same molecule, the “FlexMap NM_003581 LUA#62” value (Experiment 2, Tretinoin) was 55 (2×) and 54 and 114 and 78 and 85 and 59.5 and 53, the “FlexMap NM_003644 LUA#17” value (Experiment 2, Tretinoin) was 274 (2×) and 259 and 319 and 269 and 192 and 231 and 300 and the “FlexMap NM_003752 LUA#82” value (Experiment 2, Tretinoin) was 139 and 142 and 168 and 149.5 and 150 and 153 and 162 and 164. For the same molecule, the “FlexMap NM_003879 LUA#24” value (Experiment 2, Tretinoin) was 95 and 96.5 and 93 and 91.5 and 86 and 84 and 82 and 97, the “FlexMap NM_004079 LUA#21” value (Experiment 2, Tretinoin) was 150 and 147 and 144 and 133 and 133.5 and 142 and 143 and 152 and the “FlexMap NM_004095 LUA#59” value (Experiment 2, Tretinoin) was 293 (2×) and 227 and 287 and 286.5 and 270 and 294 and 331. The “FlexMap NM_004106 LUA#44” value (Experiment 2, Tretinoin) was 1697 and 1748 and 1762 and 1756 and 1799 and 1678 and 1587.5 and 1827, the “FlexMap NM_004134 LUA#76” value (Experiment 2, Tretinoin) was 406 and 372 and 423.5 and 417 and 415 (2×) and 383 and 426 and the “FlexMap NM_004152 LUA#31” value (Experiment 2, Tretinoin) was 2347 and 1882 and 2313 and 2471.5 and 2477.5 and 2269 and 2335.5 and 2470. For the same molecule, the “FlexMap NM_004526 LUA#88” value (Experiment 2, Tretinoin) was 256 and 233 and 244 and 270 and 260 and 240.5 and 243 and 277, the “FlexMap NM_004602 LUA#32” value (Experiment 2, Tretinoin) was 303 and 274 and 320 and 337 and 334 and 363 and 355.5 and 296 and the “FlexMap NM_004723 LUA#20” value (Experiment 2, Tretinoin) was 501 and 420 and 472.5 and 498 and 506 and 470 and 487.5 and 538. For the same molecule, the “FlexMap NM_004741 LUA#89” value (Experiment 2, Tretinoin) was 402.5 and 370.5 and 329 and 324 and 317 and 325 and 328, the “FlexMap NM_004759 LUA#37” value (Experiment 2, Tretinoin) was 206.5 and 235 and 284 and 179 and 207.5 and 192 and 195 and 201 and the “FlexMap NM_005008 LUA#77” value (Experiment 2, Tretinoin) was 452.5 (2×) and 393 and 501 and 482 and 432 and 439.5 and 502.5. The “FlexMap NM_005375 LUA#86” value (Experiment 2, Tretinoin) was 565 and 642 and 552 and 568 and 593 and 585 and 589 and 587, the “FlexMap NM_005566 LUA#85” value (Experiment 2, Tretinoin) was 744 and 745 and 851 and 821 and 830 and 748 and 752 and 776.5 and the “FlexMap NM_005914 LUA#60” value (Experiment 2, Tretinoin) was 1161.5 and 1104 and 871 and 1091 and 1131 and 1081.5 and 1125 and 1172.5. For the same molecule, the “FlexMap NM_005915 LUA#72” value (Experiment 2, Tretinoin) was 47 (4×) and 43 and 44 and 49 and 54, the “FlexMap NM_005952 LUA#66” value (Experiment 2, Tretinoin) was 243 and 261.5 and 265 and 274 and 260 and 263 and 224 and 268 and the “FlexMap NM_005980 LUA#73” value (Experiment 2, Tretinoin) was 202 and 190 and 197 and 212 and 204 and 187 and 188 and 209.5. The “FlexMap NM_006019 LUA#35” value (Experiment 2, Tretinoin) was 907 and 1033 and 1059 and 938.5 and 911.5 and 862 and 871 and 956, the “FlexMap NM_006138 LUA#56” value (Experiment 2, Tretinoin) was 124 and 117 and 115.5 and 111 and 127 and 118 and 119.5 and 120 and the “FlexMap NM_006432 LUA#27” value (Experiment 2, Tretinoin) was 1693 and 1842 and 1767 and 1718 and 1798 and 1725 and 1678 and 1814. The “FlexMap NM_006452 LUA#71” value (Experiment 2, Tretinoin) was 86 (2×) and 83.5 and 93 and 90 (2×) and 88 and 96, the “FlexMap NM_006985 LUA#58” value (Experiment 2, Tretinoin) was 56 and 50 (2×) and 55 and 52 and 54 and 60 and 63 and the “FlexMap NM_007282 LUA#16” value (Experiment 2, Tretinoin) was 58 and 53 and 61 (2×) and 69 and 64 and 59 and 62. The “FlexMap NM_014333 LUA#26” value (Experiment 2, Tretinoin) was 720 (2×) and 704 and 706 and 712 and 662 and 633.5 and 726.5, the “FlexMap NM_014366 LUA#61” value (Experiment 2, Tretinoin) was 298.5 and 321 and 304.5 and 297 and 291 and 286.5 and 300 and 310.5 and the “FlexMap NM_014573 LUA#70” value (Experiment 2, Tretinoin) was 178 and 154 and 187 and 179 and 161.5 and 172 and 157.5 and 198. The “FlexMap NM_015201 LUA#57” value (Experiment 2, Tretinoin) was 241 and 245.5 and 266 and 252 and 243 and 230 and 244 and 268.5, the “FlexMap NM_018115 LUA#63” value (Experiment 2, Tretinoin) was 1238 and 1270 and 1440 and 1028 and 1210 and 935.5 and 1175 and 1004 and the “FlexMap NM_018164 LUA#69” value (Experiment 2, Tretinoin) was 198 and 200 and 205.5 and 182 (2×) and 188.5 and 186 and 211. The “FlexMap NM_018256 LUA#83” value (Experiment 2, Tretinoin) was 568 and 635.5 and 455 and 571 and 556 and 643 and 655 and 483.5, the “FlexMap NM_018890 LUA#33” value (Experiment 2, Tretinoin) was 934 and 873 and 1071 and 983 and 992 and 923.5 and 879 and 988 and the “FlexMap NM_019058 LUA#75” value (Experiment 2, Tretinoin) was 177.5 and 194 (2×) and 192 and 181.5 and 179 and 176 and 171. For the same molecule, the “FlexMap NM_020117 LUA#78” value (Experiment 2, Tretinoin) was 697 and 734 (2×) and 750 and 739 and 606 and 654 and 748, the “FlexMap NM_021103 LUA#41” value (Experiment 2, Tretinoin) was 2724 and 2581.5 and 2331.5 and 2558 and 2559 and 793 and 1990 and 2996.5 and the “FlexMap NM_021203 LUA#80” value (Experiment 2, Tretinoin) was 657.5 and 657 and 757.5 and 703 and 701.5 and 650 and 660 and 741. The “FlexMap NM_021974 LUA#64” value (Experiment 2, Tretinoin) was 1286.5 and 1160 and 1272 and 1368.5 and 1315 and 1193.5 and 1269 and 1365, the “FlexMap NM_024045 LUA#65” value (Experiment 2, Tretinoin) was 178 and 149 and 163.5 and 164.5 and 175.5 and 158 and 157 and 182 and the “FlexMap TFRC LUA#92” value (Experiment 2, Tretinoin) was 346 and 400.5 and 413 and 375 and 381 and 358 and 345.5 and 382. The “FlexMap signal, transcript NM_000070 (LUA#2)” value [1] was 437.5 and 358 and 444 (2×) and 393 (2×) and 419 and 422, the “FlexMap signal, transcript NM_000153 (LUA#10)” value [1] was 487 and 484 and 539 and 511 and 505 and 473 and 501 and 542 and the “FlexMap signal, transcript NM_000632 (LUA#12)” value [1] was 369.5 and 476 and 491.5 and 406 and 400 and 360.5 and 374 and 395.
